Reference: patent publication US5292742A, “Angiotensin II receptor blocking 2,3,6 substituted quinazolinones” (American Cyanamid Company, priority 1993, dated 1994)
“And” between values parts separate entries of the source, which are not always exact repeats. Equal values may be shown once.

Tested on: angiotensin II (AII) vasopressor response
Experiment: AII challenge: inhibition of angiotensin II vasopressor response in conscious spontaneously hypertensive rats
Assay type: in vivo, rat (Okamoto-Aoki SHR)
Conditions: 3 mg/kg IV; for % Inhibition (angiotensin blockage) of AII vasopressor response / Average Change (increase in systolic blood pressure after AII): SHR n = 2; for Change (increase in systolic blood pressure after AII), individual rat / Response After AII (systolic blood pressure), individual rat / Control Before AII (systolic blood pressure), individual rat: individual SHR
Description: By administering a compound of this invention to a rat, and then challenging with angiotensin II, a blockage of the vasopressor response is realized.
Conscious Male Okamoto-Aoki SHR, 16-20 weeks old, weighing approximately 330 g are purchased from Charles River Labs (Wilmington, Mass.). Conscious rats are restrained in a supine position with elastic tape. The area at the base of the tail is locally anesthetized by subcutaneous infiltration with 2% procaine. The ventral caudal artery and vein are isolated, and a cannula made of polyethylene (PE) 10-20 tubing (fused together by heat) is passed into the lower abdominal aorta and vena cava, respectively. The cannula is secured, heparinized (1,000 I.U./ml), sealed and the wound is closed. The animals are placed in plastio restraininq cages in an upright position. The cannula is attached to a Statham P23Db pressure transducer, and pulsatile blood pressure is recorded to 10-15 minutes with a Gould Brush recorder. (Chan et al., (Drug Development Res., 18:75-94, 1989).
Angiotensin II (human sequence, Sigma Chem. Co., St. Louis, Mo.) of 0.05 and 0.1 mcg/kg i.v. is injected into all rats (predosing response). Then a test compound, vehicle or a known angiotensin II antagonist is administered i.v., i.p. or orally to each set of rats. The two doses of angiotensin II are given to each rat again at 30, 60, 90, 120, 180, 240 and 300 minutes post dosing the compound or vehicle. The vasopressor response of angiotensin II is measured for the increase in systolic blood pressure in mmHg. The percentage of antagonism or blockade of the vasopressor response of angiotensin II by a compound is calculated using the vasopressor response (increase in systolic blood pressure) of angiotensin II of each rat predosing the compound as 100%. A compound is considered active if at 30 mg/kg i.v. it antagonized at least 50% of the response.

[1] = AII 0.05 mcg/kg IV, 30 min post dose
[2] = AII 0.05 mcg/kg IV, 60 min post dose
[3] = AII 0.05 mcg/kg IV, 90 min post dose
[4] = AII 0.05 mcg/kg IV, 120 min post dose
[5] = AII 0.05 mcg/kg IV, 180 min post dose
[6] = AII 0.05 mcg/kg IV, 240 min post dose
[7] = AII 0.05 mcg/kg IV, 300 min post dose
[8] = AII 0.1 mcg/kg IV, 30 min post dose
[9] = AII 0.1 mcg/kg IV, 60 min post dose
[10] = AII 0.1 mcg/kg IV, 90 min post dose
[11] = AII 0.1 mcg/kg IV, 120 min post dose
[12] = AII 0.1 mcg/kg IV, 180 min post dose
[13] = AII 0.1 mcg/kg IV, 240 min post dose
[14] = AII 0.1 mcg/kg IV, 300 min post dose

CCCCc1nc2ccc(C3=NN4CCCCC4C3)cc2c(=O)n1Cc1ccc(-c2ccccc2-c2nnn[nH]2)cc1 (stereo not shown) [Example 11]
% Inhibition (angiotensin blockage) of AII vasopressor response [1]: 82% | Average Change (increase in systolic blood pressure after AII) [1]: 7.5 mmHg | Change (increase in systolic blood pressure after AII), individual rat [1]: 10 mmHg and 5 mmHg | % Inhibition (angiotensin blockage) of AII vasopressor response [2]: 59% | Average Change (increase in systolic blood pressure after AII) [2]: 17.5 mmHg | Change (increase in systolic blood pressure after AII), individual rat [2]: 20 mmHg and 15 mmHg | % Inhibition (angiotensin blockage) of AII vasopressor response [3]: 65% | Average Change (increase in systolic blood pressure after AII) [3]: 15 mmHg | Change (increase in systolic blood pressure after AII), individual rat [3]: 15 mmHg | % Inhibition (angiotensin blockage) of AII vasopressor response [4]: 59% | Average Change (increase in systolic blood pressure after AII) [4]: 17.5 mmHg | Change (increase in systolic blood pressure after AII), individual rat [4]: 20 mmHg and 15 mmHg | % Inhibition (angiotensin blockage) of AII vasopressor response [5]: 59% | Average Change (increase in systolic blood pressure after AII) [5]: 17.5 mmHg | Change (increase in systolic blood pressure after AII), individual rat [5]: 20 mmHg and 15 mmHg | % Inhibition (angiotensin blockage) of AII vasopressor response [6]: 53% | Average Change (increase in systolic blood pressure after AII) [6]: 20 mmHg | Change (increase in systolic blood pressure after AII), individual rat [6]: 25 mmHg and 15 mmHg | % Inhibition (angiotensin blockage) of AII vasopressor response [7]: 41% | Average Change (increase in systolic blood pressure after AII) [7]: 25 mmHg | Change (increase in systolic blood pressure after AII), individual rat [7]: 25 mmHg | % Inhibition (angiotensin blockage) of AII vasopressor response [8]: 63% | Average Change (increase in systolic blood pressure after AII) [8]: 17.5 mmHg | Change (increase in systolic blood pressure after AII), individual rat [8]: 20 mmHg and 15 mmHg | % Inhibition (angiotensin blockage) of AII vasopressor response [9]: 42% | Average Change (increase in systolic blood pressure after AII) [9]: 27.5 mmHg | Change (increase in systolic blood pressure after AII), individual rat [9]: 30 mmHg and 25 mmHg | % Inhibition (angiotensin blockage) of AII vasopressor response [10]: 37% | Average Change (increase in systolic blood pressure after AII) [10]: 30 mmHg | Change (increase in systolic blood pressure after AII), individual rat [10]: 30 mmHg | % Inhibition (angiotensin blockage) of AII vasopressor response [11]: 42% | Average Change (increase in systolic blood pressure after AII) [11]: 27.5 mmHg | Change (increase in systolic blood pressure after AII), individual rat [11]: 30 mmHg and 25 mmHg | % Inhibition (angiotensin blockage) of AII vasopressor response [12]: 37% | Average Change (increase in systolic blood pressure after AII) [12]: 30 mmHg | Change (increase in systolic blood pressure after AII), individual rat [12]: 25 mmHg and 35 mmHg | % Inhibition (angiotensin blockage) of AII vasopressor response [13]: 47% | Average Change (increase in systolic blood pressure after AII) [13]: 25 mmHg | Change (increase in systolic blood pressure after AII), individual rat [13]: 20 mmHg and 30 mmHg | % Inhibition (angiotensin blockage) of AII vasopressor response [14]: 42% | Average Change (increase in systolic blood pressure after AII) [14]: 27.5 mmHg | Change (increase in systolic blood pressure after AII), individual rat [14]: 20 mmHg and 35 mmHg | Response After AII (systolic blood pressure), individual rat (after AII 0.05 mcg/kg IV, 30 min post dose): 240 mmHg and 225 mmHg | Response After AII (systolic blood pressure), individual rat (after AII 0.05 mcg/kg IV, 60 min post dose): 230 mmHg | Response After AII (systolic blood pressure), individual rat (after AII 0.05 mcg/kg IV, 90 min post dose): 215 mmHg and 225 mmHg | Response After AII (systolic blood pressure), individual rat (after AII 0.05 mcg/kg IV, 120 min post dose): 225 mmHg | Response After AII (systolic blood pressure), individual rat (after AII 0.05 mcg/kg IV, 180 min post dose): 230 mmHg and 225 mmHg | Response After AII (systolic blood pressure), individual rat (after AII 0.05 mcg/kg IV, 240 min post dose): 235 mmHg and 220 mmHg | Response After AII (systolic blood pressure), individual rat (after AII 0.05 mcg/kg IV, 300 min post dose): 240 mmHg and 230 mmHg | Response After AII (systolic blood pressure), individual rat (after AII 0.1 mcg/kg IV, 30 min post dose): 245 mmHg and 240 mmHg | Response After AII (systolic blood pressure), individual rat (after AII 0.1 mcg/kg IV, 60 min post dose): 230 mmHg and 250 mmHg | Response After AII (systolic blood pressure), individual rat (after AII 0.1 mcg/kg IV, 90 min post dose): 235 mmHg and 240 mmHg | Response After AII (systolic blood pressure), individual rat (after AII 0.1 mcg/kg IV, 120 min post dose): 230 mmHg and 235 mmHg | Response After AII (systolic blood pressure), individual rat (after AII 0.1 mcg/kg IV, 180 min post dose): 240 mmHg and 250 mmHg | Response After AII (systolic blood pressure), individual rat (after AII 0.1 mcg/kg IV, 240 min post dose): 245 mmHg and 240 mmHg | Response After AII (systolic blood pressure), individual rat (after AII 0.1 mcg/kg IV, 300 min post dose): 245 mmHg | Control Before AII (systolic blood pressure), individual rat (before AII 0.05 mcg/kg IV, 30 min post dose): 230 mmHg and 220 mmHg | Control Before AII (systolic blood pressure), individual rat (before AII 0.05 mcg/kg IV, 60 min post dose): 210 mmHg and 215 mmHg | Control Before AII (systolic blood pressure), individual rat (before AII 0.05 mcg/kg IV, 90 min post dose): 200 mmHg and 210 mmHg | Control Before AII (systolic blood pressure), individual rat (before AII 0.05 mcg/kg IV, 120 min post dose): 205 mmHg and 210 mmHg | Control Before AII (systolic blood pressure), individual rat (before AII 0.05 mcg/kg IV, 180 min post dose): 210 mmHg | Control Before AII (systolic blood pressure), individual rat (before AII 0.05 mcg/kg IV, 240 min post dose): 210 mmHg and 205 mmHg | Control Before AII (systolic blood pressure), individual rat (before AII 0.05 mcg/kg IV, 300 min post dose): 215 mmHg and 205 mmHg | Control Before AII (systolic blood pressure), individual rat (before AII 0.1 mcg/kg IV, 30 min post dose): 225 mmHg | Control Before AII (systolic blood pressure), individual rat (before AII 0.1 mcg/kg IV, 60 min post dose): 200 mmHg and 225 mmHg | Control Before AII (systolic blood pressure), individual rat (before AII 0.1 mcg/kg IV, 90 min post dose): 205 mmHg and 210 mmHg | Control Before AII (systolic blood pressure), individual rat (before AII 0.1 mcg/kg IV, 120 min post dose): 200 mmHg and 210 mmHg | Control Before AII (systolic blood pressure), individual rat (before AII 0.1 mcg/kg IV, 180 min post dose): 215 mmHg | Control Before AII (systolic blood pressure), individual rat (before AII 0.1 mcg/kg IV, 240 min post dose): 225 mmHg and 210 mmHg | Control Before AII (systolic blood pressure), individual rat (before AII 0.1 mcg/kg IV, 300 min post dose): 225 mmHg and 210 mmHg
